Key:
Assay type in all cases: cell-based, human
CD4+ T cells = assay: IFN-I/III quantification (LEGENDplex) in CD4+ T cells, baseline or after STING stimulation; settings: for IFN-I/III: over-expression of cGAS or NLS-cGAS in CD4+ T cells, data not shown
Protocol: (§1) Plasmapheresis blood pockets were obtained from healthy adult volunteers after informed consent from the EFS (Establishment of French blood collection). Peripheral blood mononuclear cells (PBMCs) were isolated using Ficoll-Paque Plus (GE-17144003) and left overnight at 4° C. in RPMI (Thermo fischer #61870-010) with 10% heat-decomplemented fetal bovine serum (FBS, Eurobio #CVFSVFO0-01). CD14+ cells were enriched by positive selection (Miltenyi #130-050-201), the CD14 negative fraction was subsequently used to isolate total CD4+ T cells by negative selection (Stem Cell #17952). CD14+ cells were cultured in RPMI containing 10% FBS, 5% Penicillin-Streptomycin (PS, Thermo Fisher #10378-016), 50 μg/ml Gentamicin (Thermo Fisher #15750-045) and 10 mM HEPES (Thermo Fisher #15630-056). CD14+ cells were differentiated ex vivo into MDDC by supplementing the culture media with 50 ng/ml IL-4 (Miltenyi #130-093-922) and 10 ng/ml GM-CSF (Miltenyi #130-093-867). MDDC were used for experiments 3 or 4 days following the start of the culture. CD14+ cells were differentiated ex vivo into macrophages by adding 50 ng/ml MCSF (Miltenyi #130-096-492) to the culture media containing RPMI with 1% PS, 5% FBS and 5% human serum (Sigma #H4522). MDM were used 7 days following culture. Freshly isolated CD4+ T cells were cultured in X-VIVO 15 (Lonza #BE02-060F) and activated using anti-CD3 and anti-CD28 Dynabeads (fisher scientific #10548353) at the ratio of 1:5 (bead:cell). 100 U/ml human IL-2 (Immunotools #11340027) was added to cultures 2 days following TCR stimulation and media with IL-2 was replenished every 48 hours. To assess proliferation, freshly isolated CD4+ T cells were stained with cell proliferation dye (thermo fischer #65-0840-85) prior to TCR stimulation.
(§2) CD14+ cells were plated at 1 million cells/ml and transduced with equal volumes of freshly harvested SIV-VLPs and pTRIP-SFFV vectors in the presence of 8 μg/ml protamine (Sigma #P4020). CD4+ T cells were transduced with lentivectors 24 hours post-TCR stimulation in 100 μl of cells (0.2 million cells) and 100 μl of freshly harvested lentivirus in the presence of 8 μg/ml protamine. T cells were spinoculated at 1200 g for 2 hours at 25° C. 0.5 million THP-1 cells in 500 μl media (RPMI 10% FBS 1% PS) were transduced with 500 μl freshly harvested lentivirus in the presence of 8 μg/ml protamine. 1 μg/ml Puromycin (Invivogen #ant-pr-1) was added 2 days post-transduction when cells were transduced with pLKO.1-puro plasmid.
For stimulation of STING by extracellular ligands, 2.5 μg of ADUS100 (invivogen #tlrl-nacda2r-01) or 2′3′-cGAMP (cGAMP, invivogen #tlrl-nacga23-02) was added to 100,000 cells in 100 μl media either on freshly isolated primary cells or 3-4 days post differentiation for MDDC and 3 days post-TCR stimulation for CD4+ T cells. Cells and supernatant were harvested 18-24 hours post stimulation. For delivery of STING ligands after permeabilization, T cells were used 3 or 4 days post TCR stimulation and MDDC were used 3-4 days following differentiation. 150,000 cells were plated in round bottom 96-well plate. Media was removed by centrifugation and 20 μl 2× permeabilization buffer (100 mM HEPES, 200 mM KCl, 6 mM MgCl2, 0.2 mM DTT, 170 mM Sucrose, 2 mM ATP, 2 mM GTP, 0.4% bovine serum albumin (BSA), 20 μg/ml digitonin) and 20 μl cGAMP (12 μg/ml) was added to cells. 18 to 20 hours following stimulation supernatants and cells were harvested. Cells were stained with a fixable viability dye (Invitrogen #65-0865-14) and acquired on a FACSVerse (BD). […]
Where indicated, cells were treated with 5-Azacytidine (5AZA, Sigma #A2385) 48 hours prior to cGAMP stimulation. Fresh 5AZA was added daily to cells, and media was replenished with 5AZA following cGAMP stimulation. 100 nM Trichostatin A (TSA) (sigma #T1952) was added to cells following cGAMP stimulation and left overnight. […]

MDDC = assay: IFN-I/III quantification (LEGENDplex) in MDDC after STING stimulation
Protocol: as §1, §2
For stimulation of STING by extracellular ligands, 2.5 μg of ADUS100 (invivogen #tlrl-nacda2r-01) or 2′3′-cGAMP (cGAMP, invivogen #tlrl-nacga23-02) was added to 100,000 cells in 100 μl media either on freshly isolated primary cells or 3-4 days post differentiation for MDDC and 3 days post-TCR stimulation for CD4+ T cells. Cells and supernatant were harvested 18-24 hours post stimulation. For delivery of STING ligands after permeabilization, T cells were used 3 or 4 days post TCR stimulation and MDDC were used 3-4 days following differentiation. 150,000 cells were plated in round bottom 96-well plate. Media was removed by centrifugation and 20 μl 2× permeabilization buffer (100 mM HEPES, 200 mM KCl, 6 mM MgCl2, 0.2 mM DTT, 170 mM Sucrose, 2 mM ATP, 2 mM GTP, 0.4% bovine serum albumin (BSA), 20 μg/ml digitonin) and 20 μl cGAMP (12 μg/ml) was added to cells. 18 to 20 hours following stimulation supernatants and cells were harvested. Cells were stained with a fixable viability dye (Invitrogen #65-0865-14) and acquired on a FACSVerse (BD).
For experiments with conditioned media, CD4+ T cell- and MDDC-conditioned media refer to […] filtered conditioned media from cultures of activated CD4+ T cell and MDDC, respectively. CD4+ T cells were pretreated with 100 μl of MDDC-conditioned media or of fresh MDDC culture media, 24 hours prior to cGAMP stimulation. […]

[1] = system: STING, TBK1, IRF3, RELA, IRF7; assay: Western blot of key signaling proteins involved in STING signaling; settings: CD4+ T cells treated with IFNα2a 1000 U/ml, FIG. 4B
Protocol: 0.5 million cells were lysed for 30 minutes on ice in 50 μl RIPA buffer (50 mM Tris HCl, 150 mM NaCl, 0.1% SDS, 0.5% DOC, 1% NP-40) with Protease inhibitor (Roche #1187358001). To evaluate, phospho-proteins 50 mM NaF and 1 mM sodium orthovanadate were added to the lysis buffer. Protein lysates were cleared by centrifugation at 12,000 g for 10 to 12 minutes at 4° C. 10 μl of 6× Laemmli buffer (fisher scientific #J61337) was added to 50 μl protein lysates and samples were boiled at 95° C. for 15 minutes. Protein samples were resolved on 4%-20% Biorad precast SDS-PAGE gels (#5671125) and transferred onto PVDF membranes (BioRad #1704157). Membranes were blocked in 5% non-fat dry milk in PBS 0.1% tween or in TBS 5% BSA 0.1% Tween to detect phosphorylated proteins. Primary antibodies were used at 1:1000:phospho-STING (clone-D7C3S), STING (clone-D2P2F), serine 172 phospho-TBK1 (clone-D52C2), TBK1 (clone-D11B4), serine 396 phospho IRF3 (clone-D6O1M), IRF3 (clone-D83B9), RELA (clone-C22B4), IRF7 (clone-12G9A36), cGAS (clone-D1 D3G), Actin (clone-C4), Sendai viral proteins (Biozol #MBL-PD029). Secondary anti-rabbit or anti-mouse antibody were used at 1:10,000 (santa cruz #sc-2357, #sc-516102). ECL signal (Biorad #1705061 and #1705062) was recorded on a ChemiDoc Touch Biorad Imager. Data was analyzed and quantified with Image Lab software (Biorad). In figures, dotted lines indicate reordering of lanes from a single original membrane for visualization purpose.

[2] = TCR-activated CD4+ T cells, ADU-S100 2.5 μg, FIG. 1D

**Q.** With `Nc1ncnc2c1ncn2[C@@H]1O[C@@H]2COP(=O)([S-])O[C@@H]3[C@H](O)[C@@H](COP([O-])(=S)O[C@H]2[C@H]1O)O[C@H]3n1cnc2c(N)ncnc21.[Na+].[Na+]` (stereo partly shown) [ADU-S100, reference compound] as the molecule, how does the IFN-I induction (CD4+ T cells; [2]) read?
**A.** Its IFN-I induction is “no detectable IFN-I”.

**Q.** And the IFN-III induction (CD4+ T cells; [2])?
**A.** Its IFN-III induction is “induced IFN-III”.

**Q.** What about the “IFN response to STING ligands” value (CD4+ T cells; resting blood CD4+ T cells, soluble ligand 1 μg or 2.5 μg, FIG. 1B) of the same molecule?
**A.** Its value is “undetectable”.

**Q.** What about the “IFNλ1 produced by donor-matched MDDC, more than TCR-activated CD4+ T cells” value (MDDC; ADU-S100 2.5 μg, FIG. 1D) of the same molecule?
**A.** Its value is 10 fold.

**Q.** And the IFNβ production (MDDC; donor-matched MDDC, ADU-S100 2.5 μg, FIG. 1D)?
**A.** Its IFNβ production is “high levels”.

**Q.** With “shRNA 1: pLKO.1-puro-IRF7sh1, shRNA against IRF7, CCCGAGCTGCACGTTCCTATA [reference compound]” as the molecule, how does the “induction of IFNα2 by cGAMP stimulation” value (CD4+ T cells; CD4+ T cells expressing only RELA K5R, IRF7 knock-down, FIG. 4C) read?
**A.** The value was “abolished”.

**Q.** What about the “IRF7 expression (knock-down)” value [1] of the same molecule?
**A.** Its value is “more potent”.

**Q.** Which “IFN-I/III response to cGAMP” value (MDDC; MDDC treated with recombinant IFNγ 10 ng/ml 24 hours before cGAMP, FIG. 1H) does the source give for “IFNγ: recombinant type II interferon, 10 ng/ml” here?
**A.** The value was “sufficient to enhance”.

B1: RELA K310R: RELA with lysine 310 substituted for arginine, expressed from lentivector (protein)
chain: MDELFPLIFPAEPAQASGPYVEIIEQPKQRGMRFRYKCEGRSAGSIPGERSTDTTKTHPTIKINGYTGPGTVRISLVTKDPPHRPHPHELVGKDCRDGFYEAELCPDRCIHSFQNLGIQCVRRRDLEQAISQRIQTNNNPFQVPIEEQRGDYDLNAVRLCFQVTVRDPSGRPLRLPPVLSHPIFDNRAPNTAELKICRVNRNSGSCLGGDEIFLLCDKVQKEDIEVYFTGPGWEARGSFSQADVHRQVAIVFRTPPYADPSLQAPVRVSMQLRRPSDRELSEPMEFQYLPDTDDRHRIEEKRKRTYETFRSIMRRSPFSGPTDPRPPPRRIAVPSRSSASVPKPAPQPYPFTSSLSTINYDEFPTMVFPSGQISQASALAPAPPQVLPQAPAPAPAPAMVSALAQAPAPVPVLAPGPPQAVAPPAPKPTQAGEGTLSEALLQLQFDDEDLGALLGNSTDPAVFTDLASVDNSEFQQLLNQGIPVAPHTTEPMLMEYPEAITRLVTGAQRPPDPAPAPLGAPGLPNGLLSGDEDFSSIADMDFSALLSQISS
**Q.** With B1 as the molecule, how does the “IFNλ1 after cGAMP stimulation” value (CD4+ T cells; lentivector overexpression in CD4+ T cells, FIG. 2B, 2D, 2F) read?
**A.** The value was “augmented in the presence of cGAMP”.

**Q.** And the “IFNα2 in response to cGAMP” value (CD4+ T cells; lentivector overexpression in CD4+ T cells, FIG. 2D, 2F)?
**A.** The value was “detected”.

**Q.** And the “baseline IFNλ1 expression” value (CD4+ T cells; lentivector overexpression in CD4+ T cells, no cGAMP, FIG. 2D, 2F)?
**A.** Its value is “increased baseline IFNλ1 similar to RELA K5R”.

B2: cGAS: pTRIP-SFFV-EGFP-FLAG-cGAS over-expression (protein, UniProt Q8N884 1-522, looked up)
Cyclic GMP-AMP synthase: MQPWHGKAMQRASEAGATAPKASARNARGAPMDPTESPAAPEAALPKAGKFGPARKSGSRQKKSAPDTQERPPVRATGARAKKAPQRAQDTQPSDATSAPGAEGLEPPAAREPALSRAGSCRQRGARCSTKPRPPPGPWDVPSPGLPVSAPILVRRDAAPGASKLRAVLEKLKLSRDDISTAAGMVKGVVDHLLLRLKCDSAFRGVGLLNTGSYYEHVKISAPNEFDVMFKLEVPRIQLEEYSNTRAYYFVKFKRNPKENPLSQFLEGEILSASKMLSKFRKIIKEEINDIKDTDVIMKRKRGGSPAVTLLISEKISVDITLALESKSSWPASTQEGLRIQNWLSAKVRKQLRLKPFYLVPKHAKEGNGFQEETWRLSFSHIEKEILNNHGKSKTCCENKEEKCCRKDCLKLMKYLLEQLKERFKDKKHLDKFSSYHVKTAFFHVCTQNPQDSQWDRKDLGLCFDNCVTYFLQCLRTEKLENYFIPEFNLFSSNLIDKRSKEFLTKQIEYERNNEFPVFDEF
modifications: EGFP, FLAG tag
notes: pTRIP-SFFV-EGFP-FLAG-cGAS over-expression
**Q.** With B2 as the molecule, how does the IFN-I/III (CD4+ T cells) read?
**A.** The IFN-I/III was “remained undetectable”.

B3: NLS-cGAS: pTRIP-SFFV-EGFP-NLS-FLAG-cGAS, nuclear localization signal cGAS over-expression (protein, UniProt Q8N884 1-522, looked up)
Cyclic GMP-AMP synthase: MQPWHGKAMQRASEAGATAPKASARNARGAPMDPTESPAAPEAALPKAGKFGPARKSGSRQKKSAPDTQERPPVRATGARAKKAPQRAQDTQPSDATSAPGAEGLEPPAAREPALSRAGSCRQRGARCSTKPRPPPGPWDVPSPGLPVSAPILVRRDAAPGASKLRAVLEKLKLSRDDISTAAGMVKGVVDHLLLRLKCDSAFRGVGLLNTGSYYEHVKISAPNEFDVMFKLEVPRIQLEEYSNTRAYYFVKFKRNPKENPLSQFLEGEILSASKMLSKFRKIIKEEINDIKDTDVIMKRKRGGSPAVTLLISEKISVDITLALESKSSWPASTQEGLRIQNWLSAKVRKQLRLKPFYLVPKHAKEGNGFQEETWRLSFSHIEKEILNNHGKSKTCCENKEEKCCRKDCLKLMKYLLEQLKERFKDKKHLDKFSSYHVKTAFFHVCTQNPQDSQWDRKDLGLCFDNCVTYFLQCLRTEKLENYFIPEFNLFSSNLIDKRSKEFLTKQIEYERNNEFPVFDEF
modifications: EGFP, NLS, FLAG tag
notes: pTRIP-SFFV-EGFP-NLS-FLAG-cGAS, nuclear localization signal cGAS over-expression
**Q.** For B3, which IFN-I/III (CD4+ T cells) is on record?
**A.** The IFN-I/III was “remained undetectable”.

Source: patent US20250213614A1, “Modified RELA Protein for Inducing Interferon Expression and Engineered Immune Cells with Improved Interferon Expression” (Institut Curie, priority 2022, published 2025)
